IC50 data for 10 molecules are collected here from patent US8148391B2 (Cephalon, Inc., priority 2006, dated 2012).

A word on the IC50: it is the concentration at which inhibition is half-maximal.

In assay [1] the target is T1, baculovirus-expressed ALK (Homo sapiens, UniProt Q9UM73).
T1 construct: host or cells: baculovirus expression system
Put plainly: ALK Kinase Assay (ELISA-type, time-resolved fluorescence). Type of assay: biochemical. The note with it: 1 μM ATP (Km level), 30 ng/ml ALK, 37° C., 15 minutes; read-out: ALK Activity (ALK kinase inhibition, IC50 class). Put shortly: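 Wells were coated with phospholipase C-γ at 10 μg/mL in Tris-buffered saline. Adding 30 ng/ml enzyme started the reaction, which ran at 37° C for 15 minutes before Eu-N1 PT66 antibody detection. Percent inhibition versus log10 concentration gave IC50 by variable-slope fit.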
A general note: In an ELISA, binding on a coated surface is turned into a signal by an enzyme label.

The target of assay [2] is T2, c-Met (cytoplasmic domain) (Homo sapiens, UniProt P08581).
T2 construct: 10 ng/mL c-Met (cytoplasmic domain, Invitrogen Corporation #PV3143); purchased Invitrogen Corporation PV3143
T2 sequence (P08581 956-1390 limits assumed): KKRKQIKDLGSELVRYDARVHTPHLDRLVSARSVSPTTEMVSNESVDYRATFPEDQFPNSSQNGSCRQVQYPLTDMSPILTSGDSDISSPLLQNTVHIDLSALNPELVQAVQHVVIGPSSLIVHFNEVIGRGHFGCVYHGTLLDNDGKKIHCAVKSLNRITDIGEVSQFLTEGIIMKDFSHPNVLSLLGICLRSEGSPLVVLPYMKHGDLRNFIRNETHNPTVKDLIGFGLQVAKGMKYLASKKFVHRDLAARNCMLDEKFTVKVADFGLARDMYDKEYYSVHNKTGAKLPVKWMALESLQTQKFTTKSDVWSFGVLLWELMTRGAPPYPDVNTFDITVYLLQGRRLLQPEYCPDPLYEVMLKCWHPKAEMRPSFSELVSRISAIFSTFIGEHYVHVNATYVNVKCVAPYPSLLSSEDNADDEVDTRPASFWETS
Description: c-Met Kinase Assay (same methods as for ALK, with modifications). The class given is biochemical. The following applies: 1 μM ATP (Km level), 10 ng/mL c-Met; read-out: cMet Activity (c-Met kinase inhibition, IC50 class). The essentials: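 Steps: coat wells with PLC-γ (10 μg/mL, Tris-buffered saline); add 10 ng/mL c-Met cytoplasmic domain to initiate; incubate 15 min, 37° C; detect phosphoproduct via Eu-N1 PT66 antibody.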

T1 sequence (Q9UM73 19-1620): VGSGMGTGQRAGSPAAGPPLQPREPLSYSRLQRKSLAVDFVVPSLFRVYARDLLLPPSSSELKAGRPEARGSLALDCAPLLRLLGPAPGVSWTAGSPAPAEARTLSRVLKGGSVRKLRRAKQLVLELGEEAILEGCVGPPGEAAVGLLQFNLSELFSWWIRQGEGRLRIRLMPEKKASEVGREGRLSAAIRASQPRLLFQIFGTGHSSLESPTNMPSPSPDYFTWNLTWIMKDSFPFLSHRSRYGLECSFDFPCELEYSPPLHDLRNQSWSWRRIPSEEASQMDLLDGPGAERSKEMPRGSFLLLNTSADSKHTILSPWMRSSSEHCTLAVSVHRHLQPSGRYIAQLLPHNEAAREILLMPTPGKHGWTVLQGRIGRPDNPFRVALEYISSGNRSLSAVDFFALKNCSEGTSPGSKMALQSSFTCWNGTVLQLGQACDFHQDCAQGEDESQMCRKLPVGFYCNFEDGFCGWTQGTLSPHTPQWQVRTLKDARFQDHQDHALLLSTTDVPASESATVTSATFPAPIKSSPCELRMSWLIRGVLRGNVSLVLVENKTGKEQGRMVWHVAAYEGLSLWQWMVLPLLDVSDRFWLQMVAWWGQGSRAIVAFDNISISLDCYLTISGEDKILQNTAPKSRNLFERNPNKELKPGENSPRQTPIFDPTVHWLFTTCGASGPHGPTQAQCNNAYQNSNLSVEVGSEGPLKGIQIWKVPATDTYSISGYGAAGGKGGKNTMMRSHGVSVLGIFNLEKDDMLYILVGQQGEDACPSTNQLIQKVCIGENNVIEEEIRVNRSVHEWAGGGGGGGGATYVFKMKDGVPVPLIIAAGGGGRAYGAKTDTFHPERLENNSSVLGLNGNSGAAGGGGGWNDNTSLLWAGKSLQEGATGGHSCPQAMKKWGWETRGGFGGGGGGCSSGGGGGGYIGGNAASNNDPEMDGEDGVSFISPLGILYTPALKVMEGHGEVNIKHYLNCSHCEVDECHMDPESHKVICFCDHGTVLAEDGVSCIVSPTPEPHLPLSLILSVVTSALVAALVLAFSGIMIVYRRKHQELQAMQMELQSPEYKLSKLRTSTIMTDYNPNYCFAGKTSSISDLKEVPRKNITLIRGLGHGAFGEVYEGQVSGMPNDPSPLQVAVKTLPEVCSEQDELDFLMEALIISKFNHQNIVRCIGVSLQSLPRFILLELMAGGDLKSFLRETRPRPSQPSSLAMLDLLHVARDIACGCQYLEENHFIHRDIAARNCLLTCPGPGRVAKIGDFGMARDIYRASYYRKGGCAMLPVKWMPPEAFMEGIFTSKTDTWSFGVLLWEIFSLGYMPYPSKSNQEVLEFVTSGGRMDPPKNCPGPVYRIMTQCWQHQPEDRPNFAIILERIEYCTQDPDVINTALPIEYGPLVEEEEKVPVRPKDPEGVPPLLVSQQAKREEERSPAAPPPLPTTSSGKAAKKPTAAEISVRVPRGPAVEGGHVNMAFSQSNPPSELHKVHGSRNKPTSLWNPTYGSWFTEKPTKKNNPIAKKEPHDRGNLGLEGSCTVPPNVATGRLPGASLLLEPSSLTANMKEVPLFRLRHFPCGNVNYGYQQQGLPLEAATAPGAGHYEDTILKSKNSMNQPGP

Regarding `COc1cc2c(cc1Nc1ncc(Cl)c(N[C@@H]3CCCC[C@H]3NS(C)(=O)=O)n1)CCN(C(=O)CN(C)C)CC2` [Example 1125, N-((1R,2R)-2-{5-Chloro-2-[3-(2-dimethylamino-acetyl)-8-methoxy-2,3,4,5-tetrahydro-1H-benzo[d]azepin-7-ylamino]-pyrimidin-4-ylamino}-cyclohexyl)-methanesulfonamide], the IC50 was below 0.1 µM in assay [1] and above 10 µM in assay [2].

For the molecule `CNC(=O)c1ccccc1Nc1nc(Nc2cc3c(cc2OC)CC(=O)N(CCCN2CCOCC2)CC3)ncc1Cl` [Example 1126, 2-{5-Chloro-2-[8-methoxy-3-(3-morpholin-4-yl-propyl)-2-oxo-2,3,4,5-tetrahydro-1H-benzo[d]azepin-7-ylamino]-pyrimidin-4-ylamino}-N-methyl-benzamide], the results for the IC50 in assay [1] and in assay [2] were below 0.1 µM and above 10 µM, respectively.

Turning to `CNC(=O)CN1CCc2ccc(Nc3ncc(Cl)c(Nc4ccc(N5CCOCC5)cc4OC)n3)cc2CC1` [Example 1127, 2-{7-[5-Chloro-4-(2-methoxy-4-morpholin-4-yl-phenylamino)-pyrimidin-2-ylamino]-1,2,4,5-tetrahydro-benzo[d]azepin-3-yl}-N-methyl-acetamide], the results for the IC50 in assay [1] and in assay [2] were below 0.1 µM and 1 to 10 µM, respectively.

With `COc1cc2c(cc1Nc1ncc(Cl)c(N[C@H]3[C@@H](C(N)=O)[C@@H]4C=C[C@H]3C4)n1)CCN(CCS(C)(=O)=O)CC2` [Example 1128, (1S,2S,3R,4R)-3-{5-Chloro-2-[3-(2-methanesulfonyl-ethyl)-8-methoxy-2,3,4,5-tetrahydro-1H-benzo[d]azepin-7-ylamino]-pyrimidin-4-ylamino}-bicyclo[2.2.1]hept-5-ene-2-carboxylic acid amide], the IC50 in assay [1] is below 0.1 µM; in assay [2] it was above 10 µM.

With `CCN1CCc2cc(Nc3ncc(Cl)c(Nc4ccc(N5CCOCC5)cc4OC)n3)c(OC)cc2CC1` [Example 1129, 5-Chloro-N*2*-(3-ethyl-8-methoxy-2,3,4,5-tetrahydro-1H-benzo[d]azepin-7-yl)-N*4*-(2-methoxy-4-morpholin-4-yl-phenyl)-pyrimidine-2,4-diamine], the IC50 in assay [1] was below 0.1 µM; in assay [2], above 10 µM.

In the case of `COc1cc2c(cc1Nc1ncc(Cl)c(Nc3ccccc3OC)n1)CCN(C(=O)CN(C)C)CC2` [Example 1131, 1-{7-[5-Chloro-4-(2-methoxy-phenylamino)-pyrimidin-2-ylamino]-8-methoxy-1,2,4,5-tetrahydro-benzo[d]azepin-3-yl}-2-dimethylamino-ethanone], the values for the IC50 in assay [1] and in assay [2] were below 0.1 µM and above 10 µM, respectively.

Take `COc1cc2c(cc1Nc1ncc(Cl)c(Nc3ccccc3OC)n1)CCN(CCS(C)(=O)=O)CC2` [Example 1132, 5-Chloro-N*2*-[3-(2-methanesulfonyl-ethyl)-8-methoxy-2,3,4,5-tetrahydro-1H-benzo[d]azepin-7-yl]-N*4*-(2-methoxy-phenyl)-pyrimidine-2,4-diamine]: the IC50 in assay [1] was below 0.1 µM; in assay [2], above 10 µM.

With `CCN1CCc2ccc(OC)c(Nc3ncc(Cl)c(Nc4ccc(N5CCOCC5)cc4OC)n3)c2CC1=O` [Example 1133, 9-[5-Chloro-4-(2-methoxy-4-morpholin-4-yl-phenylamino)-pyrimidin-2-ylamino]-3-ethyl-8-methoxy-1,3,4,5-tetrahydro-benzo[d]azepin-2-one], the values for the IC50 in assay [1] and in assay [2] were 1 to 10 µM and above 10 µM, respectively.

On to `CCNC(=O)c1ccccc1Nc1nc(Nc2c(OC)ccc3c2CC(=O)N(CC)CC3)ncc1Cl` [Example 1134, 2-[5-Chloro-2-(3-ethyl-7-methoxy-4-oxo-2,3,4,5-tetrahydro-1H-benzo[d]azepin-6-ylamino)-pyrimidin-4-ylamino]-N-ethyl-benzamide], for which the IC50 in assay [1] and in assay [2] was above 10 µM each time.

For `CNC(=O)CN1CCc2cc(Nc3ncc(Cl)c(Nc4ccccc4OC)n3)c(OC)cc2CC1` [Example 1135, 2-{7-[5-Chloro-4-(2-methoxy-phenylamino)-pyrimidin-2-ylamino]-8-methoxy-1,2,4,5-tetrahydro-benzo[d]azepin-3-yl}-N-methyl-acetamide], the figures for the IC50 in assay [1] and in assay [2] were below 0.1 µM and above 10 µM, respectively.
